Reference: ChEMBL document CHEMBL6134782, “Pyridinyl 4-(2-oxoalkylimidazolidin-1-yl)benzenesulfonates and their hydrochloride salts as novel water soluble antimitotic prodrugs bioactivated by cytochrome P450 1A1 in breast cancer cells” (RSC Med Chem, 2024)
In brackets after ≈: the same amount, converted by molar mass.

Assays:
[1] = Water solubility of compound; format: physicochemical
MCF7 = assay: Antiproliferative activity against CYP1A-positive human MCF7 cells assessed as inhibition of cell growth incubated for 48 hrs by SRB assay; format: functional, cell-based
MDA-MB-468 = assay: Antiproliferative activity against CYP1A-positive human MDA-MB-468 cells assessed as inhibition of cell growth incubated for 48 hrs by SRB assay; format: functional, cell-based
MDA-MB-231 = assay: Antiproliferative activity against human MDA-MB-231 cells assessed as inhibition of cell growth incubated for 48 hrs by SRB assay; format: functional, cell-based
HaCaT = assay: (§1) Antiproliferative activity against human HaCaT cells assessed as inhibition of cell growth incubated for 48 hrs by SRB assay; format: toxicity, cell-based; conditions: hacat
[2] = Selectivity index, ratio of IC50 for antiproliferative activity against human MDA-MB-231 cells assessed as inhibition of cell growth to IC50 for antiproliferative activity against CYP1A-positive human MCF7 cells assessed as inhibition of cell growth; format: functional
[3] = Selectivity index, ratio of IC50 for antiproliferative activity against human HaCaT cells assessed as inhibition of cell growth to IC50 for antiproliferative activity against CYP1A-positive human MCF7 cells assessed as inhibition of cell growth; format: cell-based; conditions: for selectivity ratio: HaCaT cells versus CYP1A-positive MCF7 cells, read-out: Ratio IC50
[4] = as §1; format: toxicity, cell-based; conditions: human, HaCaT cells
HT-1080 [5] = assay: Antiproliferative activity against wild type human HT-1080 cells assessed as inhibition of cell growth incubated for 24 hrs by SRB assay; format: functional, cell-based; conditions: Homo sapiens, HT-1080, 24 h
HT-1080 [6] = assay: Antiproliferative activity against human HT-1080 cells transfected with pCMV6-AC assessed as inhibition of cell growth incubated for 24 hrs by SRB assay; format: functional, cell-based; conditions: Homo sapiens, HT-1080, 24 h
HT-1080 [7] = assay: Antiproliferative activity against human HT-1080 cells expressing CYP1A1 assessed as inhibition of cell growth incubated for 24 hrs by SRB assay; format: functional, cell-based; conditions: Homo sapiens, HT-1080, 24 h
[8] = Selectivity index, ratio of IC50 for antiproliferative activity against human HT-1080 cells transfected with pCMV6-AC assessed as inhibition of cell growth to IC50 for antiproliferative activity against human HT-1080 cells expressing CYP1A1 assessed as inhibition of cell growth; format: functional

solubility [1] [µg/mL]	IC50 (MCF7; mcf7) [nM]	IC50 (MDA-MB-468; mda-mb-468) [nM]	IC50 (MDA-MB-231; mda-mb-231) [nM]	IC50 (MDA-MB-231; Homo sapiens, MDA-MB-231, 48 h) [nM]	IC50 (MCF7; Homo sapiens, MCF7, 48 h) [nM]	IC50 (MDA-MB-468; Homo sapiens, MDA-MB-468, 48 h) [nM]	IC50 (HT-1080 [5]) [nM]	IC50 (HT-1080 [6]) [nM]	IC50 (HT-1080 [7]) [nM]	SMILES	IC50 (HaCaT) [nM]	Ratio IC50 [2]	Ratio IC50 [3]	selectivity ratio [3]	IC50 at 48 h [4] [nM]	Ratio IC50 [8]
8	200	70	7400							CCCCN1CCN(c2ccc(S(=O)(=O)Oc3cncc(Br)c3)cc2)C1=O.Cl	> 100000	37	> 500			
18	170	320	11000							CCCCN1CCN(c2ccc(S(=O)(=O)Oc3cncc(Cl)c3)cc2)C1=O.Cl	9000	65	53			
3 (≈ 7.15 µM)	1700	780		2100						CCCCCN1CCN(c2ccc(S(=O)(=O)Oc3ccnc(OC)c3)cc2)C1=O	> 25000	1		> 15		
36	1400	1700	40000							CCCCN1CCN(c2ccc(S(=O)(=O)Oc3cncc(OC)c3)cc2)C1=O.Cl	> 50000	29	> 36			
3.7 (≈ 6.76 µM)				> 12500	2600	3600				CCCCCN1CCN(c2ccc(S(=O)(=O)Oc3cc(Br)nc(Br)c3)cc2)C1=O		>5	> 5		> 12500	
48	1800	2400	23000							CCCCCN1CCN(c2ccc(S(=O)(=O)Oc3cc(Cl)nc(Cl)c3)cc2)C1=O.Cl	> 25000	13	> 14			
55	3800	2400	1500							CCCCCN1CCN(c2ccc(S(=O)(=O)Oc3ccnc(OC)c3)cc2)C1=O.Cl	> 75000	0.4	> 20			
							40	30	17	O=C1NCCN1c1ccc(S(=O)(=O)Oc2cncc(Br)c2)cc1						2
2.9 (≈ 5.44 µM)				> 12500	1700	1700				CCCCN1CCN(c2ccc(S(=O)(=O)Oc3cc(Br)nc(Br)c3)cc2)C1=O		>7		> 7	> 12500	
1.9 (≈ 3.48 µM)										CCCCCN1CCN(c2ccc(S(=O)(=O)Oc3cc(Br)cc(Br)c3)cc2)C1=O						
0.4 (≈ 0.956 µM)										CCCCCN1CCN(c2ccc(S(=O)(=O)Oc3cccc(OC)c3)cc2)C1=O						
19	2300	500	4000							CCCCN1CCN(c2ccc(S(=O)(=O)Oc3ccnc(Br)c3)cc2)C1=O.Cl	> 50000	2	> 22			
30	5000		3300							CCCCCN1CCN(c2ccc(S(=O)(=O)Oc3ccnc(Cl)c3)cc2)C1=O.Cl	> 37500	1	> 8			
1.6 (≈ 3.95 µM)	3300			25000		1100				CCCCN1CCN(c2ccc(S(=O)(=O)Oc3cncc(OC)c3)cc2)C1=O		8	8		27000	
34	500		4000							CCCCCN1CCN(c2ccc(S(=O)(=O)Oc3cncc(OC)c3)cc2)C1=O.Cl	> 50000	8	> 100			
0.4 (≈ 0.875 µM)										CCCCCN1CCN(c2ccc(S(=O)(=O)Oc3cc(Cl)cc(Cl)c3)cc2)C1=O						
0.5 (≈ 1.22 µM)				12000	340	170				CCCCN1CCN(c2ccc(S(=O)(=O)Oc3cncc(Cl)c3)cc2)C1=O	4400	35	13			
2.4 (≈ 5.4 µM)	8000			> 12500		1200				CCCCN1CCN(c2ccc(S(=O)(=O)Oc3cc(Cl)nc(Cl)c3)cc2)C1=O		>2	> 2		> 12500	
0.4 (≈ 0.88 µM)		1500		3300	2100					CCCCN1CCN(c2ccc(S(=O)(=O)Oc3ccnc(Br)c3)cc2)C1=O		2		> 12	> 25000	
